Experimental data taken from patent US9708314B2, “Heterocyclic amide compound” (NISSAN CHEMICAL INDUSTRIES, LTD., priority 2013, dated 2017).

How the values were obtained:
Assay type in all cases: in vivo
[1] = test system: Echinochloa oryzacola Vasing.; assay: Test Example 1: herbicidal activity, application before weed generation in submerged conditions; conditions: Seventeenth Table; for A: Echinochloa oryzicola Vasing. (herbicidal effect grade): Application herbicide amount 320 g/ha; for A (Echinochloa oryzicola Vasing.) herbicidal ratio grade: application herbicide amount 320 g/ha
Method in brief: (§1)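 Pre-emergence water-surface application under 4 cm flooding, same day as sowing, with rice transplanted at 2.5 leaf stage. Dose given as g/ha. Plants grown at 25° C. to 30° C. and rated three weeks later on a 0 (≤5%) to 5 (≥90%) herbicidal-ratio scale.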

Monochoria vaginalis = assay: as above; conditions: Seventeenth Table; for C: Monochoria vaginalis (herbicidal effect grade): Application herbicide amount 320 g/ha; for C (Monochoria vaginalis) herbicidal ratio grade: application herbicide amount 320 g/ha
Method in brief: as §1

Scirpus juncoides = assay: as above; conditions: Seventeenth Table; for B: Scirpus juncoides (herbicidal effect grade): Application herbicide amount 320 g/ha; for B (Scirpus juncoides) herbicidal ratio grade: application herbicide amount 320 g/ha
Method in brief: as §1

Alopecurus myosuroides = assay: Test Example 4: herbicidal effect by application to foliage (diluvial soil, plastic box); conditions: application to foliage, 320 g/ha
Method in brief: (§2)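 Seeds sown in sterilized diluvial soil, covered ~1.5 cm, grown 14 days in greenhouse at 25° C. to 30° C. Emulsion formulation diluted in water to set rate (g/ha) and sprayed onto stems and leaves. Effect scored visually 3 weeks later on 0–5 scale (5 = ≥90% herbicidal ratio, 0 = ≤5%).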

Amaranthus retroflexus = assay: as above; conditions: application to foliage, 320 g/ha
Method in brief: as §2

Digitaria ciliaris = assay: as above; conditions: application to foliage, 320 g/ha
Method in brief: as §2

Lolium multiflorum Lam. = assay: as above; conditions: application to foliage, 320 g/ha
Method in brief: as §2

Setaria viridis = assay: as above; conditions: application to foliage, 320 g/ha
Method in brief: as §2

Stellaria media = assay: as above; conditions: application to foliage, 320 g/ha
Method in brief: as §2

With CCN(CC)c1nnc2c(C(=O)Nc3nnnn3C)ccc(C(F)(F)F)n12 [2-089] the “A: Echinochloa oryzicola Vasing. (herbicidal effect grade)” value [1] was 5 (Herbicidal ratio of 90% or more (almost completely withered)), the “C: Monochoria vaginalis (herbicidal effect grade)” value (from here on “C: Monochoria vaginalis”) (Monochoria vaginalis) was 5 (Herbicidal ratio of 90% or more (almost completely withered)) and the “B: Scirpus juncoides (herbicidal effect grade)” value (shortened to “B: Scirpus juncoides”) (Scirpus juncoides) was 5 (Herbicidal ratio of 90% or more (almost completely withered)). The “herbicidal effect, J (Alopecurus myosuroides)” value (“herbicidal effect, J” for short) (Alopecurus myosuroides) was 2 (Herbicidal ratio of 20% or more and less than 40%), the “herbicidal effect, N (Amaranthus retroflexus)” value (“herbicidal effect, N” for short) (Amaranthus retroflexus) was 4 (Herbicidal ratio of 70% or more and less than 90%) and the “herbicidal effect, F (Digitaria ciliaris)” value (“herbicidal effect, F” for short) (Digitaria ciliaris) was 4 (Herbicidal ratio of 70% or more and less than 90%). The “herbicidal effect, K (Lolium multiflorum Lam.)” value (“herbicidal effect, K” for short) (Lolium multiflorum Lam.) was 1 (Herbicidal ratio of 5% or more and less than 20%), the “herbicidal effect, G (Setaria viridis)” value (Setaria viridis) was 4 (Herbicidal ratio of 70% or more and less than 90%) and the “herbicidal effect, P (Stellaria media)” value (Stellaria media) was 5 (Herbicidal ratio of 90% or more (almost completely withered)).
With CCCn1nnnc1NC(=O)c1ccc(C(F)(F)F)n2c(C(C)C)nnc12 [2-090] the “A: Echinochloa oryzicola Vasing. (herbicidal effect grade)” value [1] was 5 (Herbicidal ratio of 90% or more (almost completely withered)), the “C: Monochoria vaginalis” value (Monochoria vaginalis) was 5 (Herbicidal ratio of 90% or more (almost completely withered)) and the “B: Scirpus juncoides” value (Scirpus juncoides) was 5 (Herbicidal ratio of 90% or more (almost completely withered)). For the same compound, the “herbicidal effect, J” value (Alopecurus myosuroides) was 3 (Herbicidal ratio of 40% or more and less than 70%), the “herbicidal effect, N” value (Amaranthus retroflexus) was 4 (Herbicidal ratio of 70% or more and less than 90%) and the “herbicidal effect, F” value (Digitaria ciliaris) was 5 (Herbicidal ratio of 90% or more (almost completely withered)). For the same compound, the “herbicidal effect, K” value (Lolium multiflorum Lam.) was 4 (Herbicidal ratio of 70% or more and less than 90%), the “herbicidal effect, G (Setaria viridis)” value (Setaria viridis) was 4 (Herbicidal ratio of 70% or more and less than 90%) and the “herbicidal effect, P (Stellaria media)” value (Stellaria media) was 5 (Herbicidal ratio of 90% or more (almost completely withered)).
In the case of C=CCn1nnnc1NC(=O)c1ccc(C(F)(F)F)n2c(C(C)C)nnc12 [2-091], the “A: Echinochloa oryzicola Vasing. (herbicidal effect grade)” value [1] is reported as 5 (Herbicidal ratio of 90% or more (almost completely withered)), the “C: Monochoria vaginalis” value (Monochoria vaginalis) is reported as 5 (Herbicidal ratio of 90% or more (almost completely withered)) and the “B: Scirpus juncoides” value (Scirpus juncoides) is reported as 5 (Herbicidal ratio of 90% or more (almost completely withered)). For the same compound, the “herbicidal effect, J” value (Alopecurus myosuroides) was 2 (Herbicidal ratio of 20% or more and less than 40%), the “herbicidal effect, N” value (Amaranthus retroflexus) was 4 (Herbicidal ratio of 70% or more and less than 90%) and the “herbicidal effect, F” value (Digitaria ciliaris) was 5 (Herbicidal ratio of 90% or more (almost completely withered)). For the same compound, the “herbicidal effect, K” value (Lolium multiflorum Lam.) was 3 (Herbicidal ratio of 40% or more and less than 70%), the “herbicidal effect, G (Setaria viridis)” value (Setaria viridis) was 5 (Herbicidal ratio of 90% or more (almost completely withered)) and the “herbicidal effect, P (Stellaria media)” value (Stellaria media) was 5 (Herbicidal ratio of 90% or more (almost completely withered)).
CC(C)c1nnc2c(C(=O)Nc3nnnn3Cc3ccc(Cl)cc3)ccc(C(F)(F)F)n12 [2-093] was tested, and the “A: Echinochloa oryzicola Vasing. (herbicidal effect grade)” value [1] was 5 (Herbicidal ratio of 90% or more (almost completely withered)), the “C: Monochoria vaginalis” value (Monochoria vaginalis) was 4 (Herbicidal ratio of 70% or more and less than 90%) and the “B: Scirpus juncoides” value (Scirpus juncoides) was 5 (Herbicidal ratio of 90% or more (almost completely withered)). For the same compound, the “herbicidal effect, J” value (Alopecurus myosuroides) was 1 (Herbicidal ratio of 5% or more and less than 20%), the “herbicidal effect, N” value (Amaranthus retroflexus) was 2 (Herbicidal ratio of 20% or more and less than 40%) and the “herbicidal effect, F” value (Digitaria ciliaris) was 1 (Herbicidal ratio of 5% or more and less than 20%). The “herbicidal effect, K” value (Lolium multiflorum Lam.) was 1 (Herbicidal ratio of 5% or more and less than 20%), the “herbicidal effect, G (Setaria viridis)” value (Setaria viridis) was 0 (Herbicidal ratio of 5% or less (almost no effect)) and the “herbicidal effect, P (Stellaria media)” value (Stellaria media) was 5 (Herbicidal ratio of 90% or more (almost completely withered)).
In the case of C#CCN(C)c1nnc2c(C(=O)Nc3nnnn3C)ccc(C(F)(F)F)n12 [2-094], the “A: Echinochloa oryzicola Vasing. (herbicidal effect grade)” value [1] is reported as 5 (Herbicidal ratio of 90% or more (almost completely withered)), the “C: Monochoria vaginalis” value (Monochoria vaginalis) is reported as 5 (Herbicidal ratio of 90% or more (almost completely withered)) and the “B: Scirpus juncoides” value (Scirpus juncoides) is reported as 5 (Herbicidal ratio of 90% or more (almost completely withered)). For the same compound, the “herbicidal effect, J” value (Alopecurus myosuroides) was 1 (Herbicidal ratio of 5% or more and less than 20%), the “herbicidal effect, N” value (Amaranthus retroflexus) was 4 (Herbicidal ratio of 70% or more and less than 90%) and the “herbicidal effect, F” value (Digitaria ciliaris) was 4 (Herbicidal ratio of 70% or more and less than 90%). For the same compound, the “herbicidal effect, K” value (Lolium multiflorum Lam.) was 1 (Herbicidal ratio of 5% or more and less than 20%), the “herbicidal effect, G (Setaria viridis)” value (Setaria viridis) was 4 (Herbicidal ratio of 70% or more and less than 90%) and the “herbicidal effect, P (Stellaria media)” value (Stellaria media) was 5 (Herbicidal ratio of 90% or more (almost completely withered)).
In the case of CN(CCC#N)c1nnc2c(C(=O)Nc3nnnn3C)ccc(C(F)(F)F)n12 [2-095], the “A: Echinochloa oryzicola Vasing. (herbicidal effect grade)” value [1] is reported as 5 (Herbicidal ratio of 90% or more (almost completely withered)), the “C: Monochoria vaginalis” value (Monochoria vaginalis) is reported as 5 (Herbicidal ratio of 90% or more (almost completely withered)) and the “B: Scirpus juncoides” value (Scirpus juncoides) is reported as 5 (Herbicidal ratio of 90% or more (almost completely withered)). The “herbicidal effect, J” value (Alopecurus myosuroides) was 4 (Herbicidal ratio of 70% or more and less than 90%), the “herbicidal effect, N” value (Amaranthus retroflexus) was 5 (Herbicidal ratio of 90% or more (almost completely withered)) and the “herbicidal effect, F” value (Digitaria ciliaris) was 5 (Herbicidal ratio of 90% or more (almost completely withered)). The “herbicidal effect, K” value (Lolium multiflorum Lam.) was 3 (Herbicidal ratio of 40% or more and less than 70%), the “herbicidal effect, G (Setaria viridis)” value (Setaria viridis) was 5 (Herbicidal ratio of 90% or more (almost completely withered)) and the “herbicidal effect, P (Stellaria media)” value (Stellaria media) was 5 (Herbicidal ratio of 90% or more (almost completely withered)).
COc1ccc(N(C)c2nnc3c(C(=O)Nc4nnnn4C)ccc(C(F)(F)F)n23)cc1 [2-099] was tested, and the “A (Echinochloa oryzicola Vasing.) herbicidal ratio grade” value [1] was 5 (Herbicidal ratio of 90% or more (almost completely withered)), the “C (Monochoria vaginalis) herbicidal ratio grade” value (Monochoria vaginalis) was 5 (Herbicidal ratio of 90% or more (almost completely withered)) and the “B (Scirpus juncoides) herbicidal ratio grade” value (Scirpus juncoides) was 4 (Herbicidal ratio of 70% or more and less than 90%). For the same compound, the “herbicidal effect, J” value (Alopecurus myosuroides) was 0 (Herbicidal ratio of 5% or less (almost no effect)), the “herbicidal effect, N” value (Amaranthus retroflexus) was 4 (Herbicidal ratio of 70% or more and less than 90%) and the “herbicidal effect, F” value (Digitaria ciliaris) was 5 (Herbicidal ratio of 90% or more (almost completely withered)). The “herbicidal effect, K” value (Lolium multiflorum Lam.) was 1 (Herbicidal ratio of 5% or more and less than 20%), the “herbicidal effect, G (Setaria viridis)” value (Setaria viridis) was 4 (Herbicidal ratio of 70% or more and less than 90%) and the “herbicidal effect, P (Stellaria media)” value (Stellaria media) was 5 (Herbicidal ratio of 90% or more (almost completely withered)).
With C=CCN(C)c1nnc2c(C(=O)Nc3nnnn3C)ccc(C(F)(F)F)n12 [2-100] the “A (Echinochloa oryzicola Vasing.) herbicidal ratio grade” value [1] was 5 (Herbicidal ratio of 90% or more (almost completely withered)), the “C (Monochoria vaginalis) herbicidal ratio grade” value (Monochoria vaginalis) was 5 (Herbicidal ratio of 90% or more (almost completely withered)) and the “B (Scirpus juncoides) herbicidal ratio grade” value (Scirpus juncoides) was 5 (Herbicidal ratio of 90% or more (almost completely withered)). The “herbicidal effect, J” value (Alopecurus myosuroides) was 2 (Herbicidal ratio of 20% or more and less than 40%), the “herbicidal effect, N” value (Amaranthus retroflexus) was 5 (Herbicidal ratio of 90% or more (almost completely withered)) and the “herbicidal effect, F” value (Digitaria ciliaris) was 5 (Herbicidal ratio of 90% or more (almost completely withered)). The “herbicidal effect, K” value (Lolium multiflorum Lam.) was 3 (Herbicidal ratio of 40% or more and less than 70%), the “herbicidal effect, G (Setaria viridis)” value (Setaria viridis) was 4 (Herbicidal ratio of 70% or more and less than 90%) and the “herbicidal effect, P (Stellaria media)” value (Stellaria media) was 5 (Herbicidal ratio of 90% or more (almost completely withered)).
With COCCSc1nnc2c(C(=O)Nc3nnnn3C)ccc(C(F)(F)F)n12 [2-101] the “A (Echinochloa oryzicola Vasing.) herbicidal ratio grade” value [1] was 5 (Herbicidal ratio of 90% or more (almost completely withered)), the “C (Monochoria vaginalis) herbicidal ratio grade” value (Monochoria vaginalis) was 5 (Herbicidal ratio of 90% or more (almost completely withered)) and the “B (Scirpus juncoides) herbicidal ratio grade” value (Scirpus juncoides) was 5 (Herbicidal ratio of 90% or more (almost completely withered)). The “herbicidal effect, J” value (Alopecurus myosuroides) was 3 (Herbicidal ratio of 40% or more and less than 70%), the “herbicidal effect, N” value (Amaranthus retroflexus) was 5 (Herbicidal ratio of 90% or more (almost completely withered)) and the “herbicidal effect, F” value (Digitaria ciliaris) was 5 (Herbicidal ratio of 90% or more (almost completely withered)). For the same compound, the “herbicidal effect, K” value (Lolium multiflorum Lam.) was 3 (Herbicidal ratio of 40% or more and less than 70%), the “herbicidal effect, G (Setaria viridis)” value (Setaria viridis) was 5 (Herbicidal ratio of 90% or more (almost completely withered)) and the “herbicidal effect, P (Stellaria media)” value (Stellaria media) was 5 (Herbicidal ratio of 90% or more (almost completely withered)).
For C=CCSc1nnc2c(C(=O)Nc3nnnn3C)ccc(C(F)(F)F)n12 [2-102], the “A (Echinochloa oryzicola Vasing.) herbicidal ratio grade” value [1] was 5 (Herbicidal ratio of 90% or more (almost completely withered)), the “C (Monochoria vaginalis) herbicidal ratio grade” value (Monochoria vaginalis) was 4 (Herbicidal ratio of 70% or more and less than 90%) and the “B (Scirpus juncoides) herbicidal ratio grade” value (Scirpus juncoides) was 5 (Herbicidal ratio of 90% or more (almost completely withered)). The “herbicidal effect, J” value (Alopecurus myosuroides) was 0 (Herbicidal ratio of 5% or less (almost no effect)), the “herbicidal effect, N” value (Amaranthus retroflexus) was 5 (Herbicidal ratio of 90% or more (almost completely withered)) and the “herbicidal effect, F” value (Digitaria ciliaris) was 5 (Herbicidal ratio of 90% or more (almost completely withered)). For the same compound, the “herbicidal effect, K” value (Lolium multiflorum Lam.) was 1 (Herbicidal ratio of 5% or more and less than 20%), the “herbicidal effect, G (Setaria viridis)” value (Setaria viridis) was 4 (Herbicidal ratio of 70% or more and less than 90%) and the “herbicidal effect, P (Stellaria media)” value (Stellaria media) was 5 (Herbicidal ratio of 90% or more (almost completely withered)).
